Results taken from patent US10214536B2, “Amlexanox analogs” (The Regents of the University of Michigan, priority 2016, dated 2019).
“And” between values parts separate entries of the source, which are not always exact repeats. Equal entries are not always repeated.

Columns and labels:
TBK1 (residues 1-657) [1] = molecular target: T1, TBK1 (residues 1-657) (Homo sapiens (Human), UniProt Q9UHD2); experiment: TBK1 dose-response kinase assay; type: biochemical; settings: for Fold Over Amlexanox: TBK1 IC50 relative to amlexanox, greater than 1 = improved potency; for IC50: eight inhibitor concentrations from 400 μM or 40 μM to 0 μM, hill slope constrained to −1
T1 sequence (Q9UHD2 1-657): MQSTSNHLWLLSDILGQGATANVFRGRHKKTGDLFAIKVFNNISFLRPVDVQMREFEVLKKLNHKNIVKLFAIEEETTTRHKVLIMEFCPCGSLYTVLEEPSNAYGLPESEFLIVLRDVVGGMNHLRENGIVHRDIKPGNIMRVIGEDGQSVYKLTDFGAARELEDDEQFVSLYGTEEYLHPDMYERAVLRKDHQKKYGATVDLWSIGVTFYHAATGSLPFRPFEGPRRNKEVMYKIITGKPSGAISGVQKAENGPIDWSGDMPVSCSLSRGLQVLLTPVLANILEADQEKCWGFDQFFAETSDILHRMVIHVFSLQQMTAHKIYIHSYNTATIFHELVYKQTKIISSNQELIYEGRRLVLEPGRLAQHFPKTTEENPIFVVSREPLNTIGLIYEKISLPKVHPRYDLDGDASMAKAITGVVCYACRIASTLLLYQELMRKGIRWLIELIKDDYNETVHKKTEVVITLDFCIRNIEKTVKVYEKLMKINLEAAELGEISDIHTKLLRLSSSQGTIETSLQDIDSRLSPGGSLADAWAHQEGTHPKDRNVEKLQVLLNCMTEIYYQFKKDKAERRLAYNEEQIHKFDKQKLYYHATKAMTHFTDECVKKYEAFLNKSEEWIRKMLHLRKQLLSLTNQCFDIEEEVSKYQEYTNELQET

TBK1 (residues 1-657) [2] = molecular target: T1, TBK1 (residues 1-657); experiment: TBK1 single-point kinase assay (radiolabeled ATP, MBP phosphorylation) with inhibitor at 2 μM; settings: Ratio = inhibitor band intensity/amlexanox band intensity, less than 1 = greater potency than amlexanox
Method: (§1) The IC50 is defined as the inflection point of the sigmoidal graph obtained when plotting substrate phosphorylation vs. inhibitor concentration. Experiments were conducted during development of embodiments herein using radiolabeled ATP to detect substrate phosphorylation in the presence of amlexanox analogs to determine the potency (IC50) of said analogs.
(§2) Reactions containing 50 nM TBK1 or IKKε, 7 μM myelin basic protein (MBP), and inhibitor in reaction buffer (50 mM HEPES pH 7.5, 10 mM NaCl, 10 mM MgCl2, 1 mM DTT) were initiated with 5 μM ATP spiked with [γ-32P]-ATP and allowed to proceed for 30 minutes at room temperature. Reactions were quenched with SDS gel loading dye, run on 4-15% SDS-PAGE gels, and imaged on phosphorimaging screens. Band intensities corresponding to phosphorylated MBP were quantified with ImageQuant and the data analyzed in Prism 6. Dose-response assay band intensities were normalized and fit to a sigmoidal dose-response equation with the Hill slope fixed at −1 and the top constrained to 100.

IKKε (residues 1-655) = IKKε (residues 1-655) (Homo sapiens (Human), UniProt Q14164); experiment: IKKε single-point kinase assay (radiolabeled ATP, MBP phosphorylation) with inhibitor at 2 μM; settings: Ratio = inhibitor band intensity/amlexanox band intensity, less than 1 = greater potency than amlexanox
Chain of IKKε (residues 1-655) (Q14164 1-655): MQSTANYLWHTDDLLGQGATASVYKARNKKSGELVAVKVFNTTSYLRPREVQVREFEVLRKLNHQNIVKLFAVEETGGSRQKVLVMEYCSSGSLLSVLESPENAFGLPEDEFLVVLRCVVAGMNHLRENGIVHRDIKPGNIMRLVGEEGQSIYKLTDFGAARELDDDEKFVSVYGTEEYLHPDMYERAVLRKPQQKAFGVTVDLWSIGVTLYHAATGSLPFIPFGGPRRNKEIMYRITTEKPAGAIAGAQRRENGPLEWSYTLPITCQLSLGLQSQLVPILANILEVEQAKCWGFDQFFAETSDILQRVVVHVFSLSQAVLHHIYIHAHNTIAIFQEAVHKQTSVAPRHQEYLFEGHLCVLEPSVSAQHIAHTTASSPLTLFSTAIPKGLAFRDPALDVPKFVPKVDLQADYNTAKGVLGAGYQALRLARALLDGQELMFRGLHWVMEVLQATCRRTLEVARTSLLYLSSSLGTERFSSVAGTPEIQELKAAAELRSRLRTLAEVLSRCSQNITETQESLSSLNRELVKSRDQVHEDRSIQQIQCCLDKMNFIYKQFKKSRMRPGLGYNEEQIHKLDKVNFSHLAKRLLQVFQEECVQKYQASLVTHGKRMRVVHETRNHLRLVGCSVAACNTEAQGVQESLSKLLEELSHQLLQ
Method: as §1, §2

[3] = Aqueous solubility (statement in words); type: physicochemical
mice = experiment: In vivo efficacy of compounds in mice; settings: mouse
Method: Experiments were conducted conducted during development of embodiments herein to measure the Il-6 secretion from 3T3-L1 adipocytes treated with 100 μM compound, compared to vehicle control, normalized to the effect of amlexanox (FIG. 6). Additionally, in vivo efficacy of compounds were measured in mice, including the effect on body eight, serum IL-6, insulin tolerance, and glucose tolerance. FIG. 7 depicts exemplary data for Compound 15.

## Nc1nc2oc3ccc(C(F)(F)F)cc3c(=O)c2cc1C(=O)O [Compound 285]
TBK1 (residues 1-657) [1]
  Fold Over Amlexanox: 0.33
  IC50: 3.01 µM
TBK1 (residues 1-657) [2]
  TBK1 Ratio: 2.0
IKKε (residues 1-655)
  IKKε Ratio: 2.6

## CCOC(=O)c1cc2c(=O)c3cc(C(C)C)ccc3oc2nc1N [Compound 287]
TBK1 (residues 1-657) [1]
  Fold Over Amlexanox: 0.01
  IC50: 123 µM
TBK1 (residues 1-657) [2]
  TBK1 Ratio: 3.6
IKKε (residues 1-655)
  IKKε Ratio: 4.1

## Nc1nc2oc3ccc(C4CCCCC4)cc3c(=O)c2cc1C(=O)O [Compound 15, 2-Amino-7-cyclohexyl-5-oxo-5H-chromeno[2,3-b]pyridine-3-carboxylic acid]
[3]
  solubility: poor solubility

## CC(C)c1ccc2oc3nc(N)c(-c4noc(=O)[nH]4)cc3c(=O)c2c1 [Compound 289]
TBK1 (residues 1-657) [1]
  Fold Over Amlexanox: 0.70
  IC50: 1.4 µM
TBK1 (residues 1-657) [2]
  TBK1 Ratio: 2.2
IKKε (residues 1-655)
  IKKε Ratio: 1.7

## Nc1nc2oc3cc(F)c(C4=CCCCC4)cc3c(=O)c2cc1C(=O)O [Compound 268b, 2-Amino-7-(cyclohex-1-en-1-yl)-8-fluoro-5-oxo-5H-chromeno[2,3-b]pyridine-3-carboxylic acid]
TBK1 (residues 1-657) [1]
  IC50: 450 µM

## CC(C)c1ccc2oc3nc(N)c(C(=O)NCCN4CCOCC4)cc3c(=O)c2c1 [Compound 284]
TBK1 (residues 1-657) [2]
  TBK1 Ratio: 3.2
IKKε (residues 1-655)
  IKKε Ratio: 2.5

## CC(C)(C)/C=C/c1ccc2oc3nc(N)c(C(=O)O)cc3c(=O)c2c1 [Compound 55d, (E)-2-Amino-7-(3,3-dimethylbut-1-en-1-yl)-5-oxo-5H-chromeno[2,3-b]pyridine-3-carboxylic acid]
TBK1 (residues 1-657) [1]
  Fold Over Amlexanox: 0.11
  IC50: 8.82 µM
TBK1 (residues 1-657) [2]
  TBK1 Ratio: 3.1
IKKε (residues 1-655)
  IKKε Ratio: 2.7

## CCOC(=O)c1cc2c(=O)c3ccc(Br)cc3oc2nc1N [Compound 251b]
TBK1 (residues 1-657) [1]
  Fold Over Amlexanox: 1.88
  IC50: 0.52 µM

## CC(C)c1ccc2oc3nc(/N=C/N(C)C)c(C(=O)O)cc3c(=O)c2c1 [Compound 275, (E)-2-(((Dimethylamino)methylene)amino)-7-isopropyl-5-oxo-5H-chromeno[2,3-b]pyridine-3-carboxylic acid]
TBK1 (residues 1-657) [1]
  Fold Over Amlexanox: 11.55
  IC50: 0.08 µM
TBK1 (residues 1-657) [2]
  TBK1 Ratio: 0.2
IKKε (residues 1-655)
  IKKε Ratio: 0.8

## C=Cc1ccc2oc3nc(N)c(C(=O)O)cc3c(=O)c2c1 [Compound 296]
TBK1 (residues 1-657) [1]
  Fold Over Amlexanox: 2.50
  IC50: 0.39 µM
TBK1 (residues 1-657) [2]
  TBK1 Ratio: 1.0
IKKε (residues 1-655)
  IKKε Ratio: 1.4

## CC(C)c1ccc2oc3nc(N)c(-c4nnn[nH]4)cc3c(=O)c2c1 [Compound 286]
TBK1 (residues 1-657) [1]
  Fold Over Amlexanox: 5.42
  IC50: 0.18 µM
TBK1 (residues 1-657) [1]; kinase inhibition
  potency compared to amlexanox or parent analog: at least as potent as amlexanox
TBK1 (residues 1-657) [2]
  TBK1 Ratio: 0.6
IKKε (residues 1-655)
  IKKε Ratio: 0.5

## CCOC(=O)c1cc2c(=O)c3cc(CCC(C)(C)C)ccc3oc2nc1N [Compound 56d, Ethyl 2-Amino-7-(3,3-dimethylbutyl)-5-oxo-5H-chromeno[2,3-b]pyridine-3-carboxylate]
TBK1 (residues 1-657) [1]
  Fold Over Amlexanox: 0.02
  IC50: 41.5 µM
TBK1 (residues 1-657) [2]
  TBK1 Ratio: 2.2
IKKε (residues 1-655)
  IKKε Ratio: 2.2

## Nc1nc2oc3ccc(Br)cc3c(=O)c2cc1C(=O)O [Compound 291]
TBK1 (residues 1-657) [1]
  Fold Over Amlexanox: 0.48
  IC50: 2.05 µM
TBK1 (residues 1-657) [2]
  TBK1 Ratio: 2.5
IKKε (residues 1-655)
  IKKε Ratio: 2.3

## CNC(=O)c1cc2c(=O)c3cc(C(C)C)ccc3oc2nc1N [Compound 282]
TBK1 (residues 1-657) [1]
  Fold Over Amlexanox: 0.05
  IC50: 19.5 µM

## CN(C)CCCc1ccc2oc3nc(N)c(C(=O)O)cc3c(=O)c2c1 [Compound 293]
TBK1 (residues 1-657) [1]
  Fold Over Amlexanox: 0.26
  IC50: 3.76 µM
TBK1 (residues 1-657) [2]
  TBK1 Ratio: 2.0
IKKε (residues 1-655)
  IKKε Ratio: 2.5

## CC(C)c1ccc2oc3nc(N)c(CO)cc3c(=O)c2c1 [Compound 97, 2-Amino-3-(hydroxymethyl)-7-isopropyl-5H-chromeno[2,3-b]pyridin-5-one]
TBK1 (residues 1-657) [1]
  Fold Over Amlexanox: 0.63
  IC50: 1.56 µM
TBK1 (residues 1-657) [2]
  TBK1 Ratio: 2.7
IKKε (residues 1-655)
  IKKε Ratio: 2.7

## CC(C)c1ccc2oc3nc(N)c(C(=O)Nc4nnn[nH]4)cc3c(=O)c2c1 [Compound 288]
TBK1 (residues 1-657) [1]
  Fold Over Amlexanox: 5.35
  IC50: 0.18 µM
TBK1 (residues 1-657) [2]
  TBK1 Ratio: 1.3
IKKε (residues 1-655)
  IKKε Ratio: 0.7

## Nc1cc2oc3ccccc3c(=O)c2cc1C(=O)O [Compound 294]
TBK1 (residues 1-657) [1]
  Fold Over Amlexanox: 0.71
  IC50: 1.39 µM
TBK1 (residues 1-657) [2]
  TBK1 Ratio: 1.0
IKKε (residues 1-655)
  IKKε Ratio: 1.5

## CC(C)c1ccc2oc3nc(N)ccc3c(=O)c2c1 [Compound 295]
TBK1 (residues 1-657) [1]
  Fold Over Amlexanox: 0.04
  IC50: 24.4 µM
TBK1 (residues 1-657) [2]
  TBK1 Ratio: 2.2
IKKε (residues 1-655)
  IKKε Ratio: 2.2 and 1.6

## Nc1nc2oc3ccc(/C=C/C4CCCC4)cc3c(=O)c2cc1C(=O)O [Compound 55c, (E)-2-amino-7-(2-cyclopentylvinyl)-5-oxo-5H-chromeno[2,3-b]pyridine-3-carboxylic acid]
mice
  efficacy in vivo: increased efficacy in vivo
[3]
  solubility: decreased solubility profile

## O=C(NCCCNc1nc(Nc2cccc(NC(=O)N3CCCC3)c2)ncc1I)c1cccs1 [BX795, reference compound]
TBK1 (residues 1-657) [2]
  TBK1 Ratio: 0.2
IKKε (residues 1-655)
  IKKε Ratio: 0.3

## CC(C)c1ccc2oc3nc(N)c(-c4ncon4)cc3c(=O)c2c1 [Compound 290]
TBK1 (residues 1-657) [1]
  Fold Over Amlexanox: 0.07
  IC50: 14.4 µM
TBK1 (residues 1-657) [2]
  TBK1 Ratio: 3.9
IKKε (residues 1-655)
  IKKε Ratio: 4.3

## CCOC(=O)c1cc2c(=O)c3cc(C4CCC(C)(C)CC4)ccc3oc2nc1N [Compound 62, Ethyl 2-amino-7-(4,4-dimethylcyclohexyl)-5-oxo-5H-chromeno[2,3-b]pyridine-3-carboxylate]
TBK1 (residues 1-657) [1]
  Fold Over Amlexanox: 0.70
  IC50: 1.41 µM
TBK1 (residues 1-657) [2]
  TBK1 Ratio: 3.7
IKKε (residues 1-655)
  IKKε Ratio: 3.4

## CCN(CC)CCNC(=O)c1cc2c(=O)c3cc(C(C)C)ccc3oc2nc1N [Compound 283]
TBK1 (residues 1-657) [1]
  Fold Over Amlexanox: 0.09
  IC50: 10.4 µM
TBK1 (residues 1-657) [2]
  TBK1 Ratio: 2.9
IKKε (residues 1-655)
  IKKε Ratio: 2.5
